US20100152156A1, “2-Azetidinone Derivatives For The Treatment Of Hyperlipidaemic Diseases” (ASTRAZENECA AB, priority 2005, published 2010)

Tests used:
[1] = tested on: ^14C-cholesterol absorption; experiment: In vivo testing of cholesterol absorption inhibitors (A); conditions: procedure A, C57BL/6 female mice
Protocol: In Vivo Testing of Cholesterol Absorption Inhibitors (A)
C57BL/6 female mice were maintained on regular chow diet and housed in individual cages to collect faeces. Mice were fasted for 3 hours and then gavaged with vehicle or compound. Half an hour later the mice were gavaged with radiolabelled cholesterol. Six hours after the ^14C-cholesterol gavage blood samples were taken via the tail and plasma prepared to determine how much cholesterol were absorbed. 24 hours after the gavage of ^14C-cholesterol the mice were bled and plasma were prepared for analysis. Faeces were collected for 24 hours to assess absorption efficiency.

[2] = Absorption in a Caco-2 cells model; type: in vitro ADME; conditions: human
Protocol: Absorption of the compounds of formula (I) was tested in a Caco-2 cells model (Gastroenterology 1989, 96, 736): […]

Row | Papp [2] [×10⁻⁶ cm/s] | SMILES | inhibition of ^14C-cholesterol absorption ([1]; administration of 0.2 mmol/kg by gavage) [%] | inhibition of ^14C-cholesterol absorption ([1]; administration of 0.2 μmol/kg by gavage) [%]
1 | 0.12 | CC(C)(C)[C@@H](NC(=O)CNC(=O)COc1ccc([C@@H]2[C@@H](SCC(O)c3ccc(F)cc3)C(=O)N2c2ccc(F)cc2)cc1)C(=O)NCC(=O)O (single isomer, unassigned) [Example 6, N-{[4-((2R,3R)-1-(4-fluorophenyl)-3-{[(2R or S)-2-(4-fluorophenyl)-2-hydroxyethyl]thio}-4-oxoazetidin-2-yl)phenoxy]acetyl}glycyl-3-methyl-D-valylglycine] | 49 | 
2 |  | CC(C)(C)[C@@H](NC(=O)CNC(=O)COc1ccc([C@@H]2[C@@H](SCC(O)c3ccc(F)cc3)C(=O)N2c2ccc(F)cc2)cc1)C(=O)N[C@H](CO)C(=O)O (single isomer, unassigned) [Example 7, N-{[4-((2R,3R)-1-(4-fluorophenyl)-3-{[(2R or S)-2-(4-fluorophenyl)-2-hydroxyethyl]thio}-4-oxoazetidin-2-yl)phenoxy]acetyl}glycyl-3-methyl-D-valyl-D-serine] |  | 46
